# ChEMBL document CHEMBL5335803, “Potential of several triazene derivatives against DENGUE viruses” (Bioorg Med Chem Lett, 2024)
# Columns and labels:
# [1] = Cytotoxicity against human Huh-7 cells infected with DENV assessed as reduction in cell viability by microplate spectrophotometry; assay type: toxicity, cell-based
# Dengue virus [2] = assay: Antiviral activity against DENV infected in human Huh-7 cells assessed as reduction in viral growth incubated for 72 hrs by flow cytometry; assay type: functional, organism-based; conditions: Huh-7, 72 h
# Dengue virus [3] = assay: Antiviral activity against DENV infected in human Huh-7 cells assessed as percent of infected cells at 50 uM incubated for 72 hrs by flow cytometry relative to control; assay type: functional
# [4] = Selectivity index, ratio of CC50 for human Huh-7 cells to EC50 for DENV infected in Huh-7 cells; assay type: toxicity, cell-based; conditions: read-out: Selectivity Index
# Dengue virus [5] = assay: Antiviral activity against DENV infected in human Huh-7 cells assessed as percent of infected cells at 12.5 uM incubated for 72 hrs by flow cytometry relative to control; assay type: functional
Structure (SMILES),CC50 [1] [µM],EC50 (Dengue virus [2]) [µM],Activity (Dengue virus [3]),selectivity ratio [4],Activity (Dengue virus [5]) [%]
CCN(CC)/N=N/c1ccc(OC)cc1,24.4,> 50,22%,,
c1ccc(/N=N/Nc2ccccn2)cc1,22.1,10.6,<=20%,,
COc1ccc(/N=N/n2ccnc2)cc1,72,32.4,22%,2.22,
c1cncc(/N=N/N2CCCc3ccccc32)c1,7.09,7.92,22%,,
Brc1ccc(/N=N/Nc2ccccn2)cc1,75.6,8.08,<=20%,9.36,
CN(/N=N/c1cccnc1)c1ccccc1,20.6,11.7,,,
COc1ccc(/N=N/Nc2ccccn2)cc1,15.5,< 1.56,<=20%,,
Brc1cccc(/N=N/Nc2ccccn2)c1,27.4,8.45,<=20%,,
FC(F)(F)c1ccc(/N=N/Nc2ccncc2)cc1,11.9,,,,
COc1ccc(/N=N/Nc2ncccc2C)cc1,> 100,11.5,22%,,
NC(=O)c1ncn([C@@H]2O[C@H](CO)[C@@H](O)[C@H]2O)n1 [RIBAVIRIN],,40.8,,,
O[C@H]1[C@H]2c3cc4c(cc3CN3CCC(=C[C@@H]1O)[C@H]23)OCO4 [LYCORINE],,1.7,,,
COc1ccc(/N=N/Nc2ccncc2)cc1,28.5,48.1,22%,,
FC(F)(F)c1ccc(/N=N/n2ccnc2)cc1,> 100,7.82,<=20%,> 12.8,0
